Assay results as given in patent US20100203001A1, “PROCESS FOR FORMING DISULFIDE BRIDGES” (APLAGEN GMBH, priority 2007, published 2010).
Entries after “also recorded” stand apart in the source; their conditions may differ. Where two headings read alike, the source gives them in different places.

How the values were obtained:
[1] = tests of the capacity to promote the formation of disulfide bridges; type: biochemical
Procedure: The tests were carried out as described previously (see above). The substance tested and the amounts tested are stated in each case.

BB57 = experiment: cyclization (oxidation) of EPO mimetic peptide BB57 to BB57C in air in water, monitored by HPLC or Ellman's test; type: biochemical
human hair = experiment: oxidation of reduced human hair by heterocyclic compound with metal ions, thiol groups by Ellman's reagent
Procedure: To this end, for each measuring point the disulfide bridges of 5 mg hair were first reduced using ammonium thioglycolate/ammonium thiolactate (commercially available formulations for permanent waves) in order to open them. Subsequently, the reduction solution is removed and the hair was washed with water several times. Then, the hair was subjected to the different oxidation mixtures in order to again close the disulfide bridges. After filtrating these solutions, the amount of thiol groups was determined using the Ellman's reagent. Thereby, a statement on the speed and efficiency of the oxidation step and thus the renewed closure of the disulfide bridges can be made.
In several experiments combinations of different metal additives in place of higher amounts of a single salt component are also used. The amounts in the mixture “artificial tap water” described below are based on the maximum values of the regulation for tap water of the FRG, wherein the following combination of metal ions was used: 0.2 mg/L iron ([…], 5 mg/L zinc (Zn^2+), 2 mg/L copper (Cu^2+) and some hardening components 100 mg/L calcium (Ca^2+) and 50 mg/L magnesium (Mg^2+).

hair = experiment: oxidation of hair reduced with ammonium thioglycolate Wave-Lotion, free thiol groups by Ellman's reagent (412 nm); settings: air, room temperature, 3 days
Procedure: The solution is removed and the hair is then washed 6 times with 400 μl H2O each time.
For determination of the free thiol groups still remaining, after removing the reaction solution the hair is reacted with fEllman's reagent (5,5′-dithiobis(2-nitrobenzoic acid), DTNB). […] The hair samples are put in 200 μl each of 100 mM phosphate buffer, pH 8.0 and 1 mM EDTA, and 300 μl of a 1 mM DTNB solution in the same EDTA-containing buffer. The solution is analyzed after a few minutes in a UV-Vis spectrometer.

EPO mimetic peptide = experiment: cyclization of an EPO mimetic peptide that can only be cyclized with great difficulty; type: biochemical; settings: 10 mg/ml caffeine
Procedure: Some of the EPO mimetic peptides can only be cyclized with great difficulty. An example is the following peptide:
The yield after approx. 21 h in solution was already >90%.

oxytocin, reduced (OxyR) = oxytocin, reduced (OxyR) (Homo sapiens, UniProt P01178); experiment: cyclization of reduced oxytocin-derived peptide (OxyR) to oxytocin (Oxy) in air, HPLC; type: biochemical; settings: GSSG optionally added with caffeine
Procedure: The reaction mixture was analyzed by HPLC at regular intervals, in order to determine the contents of OxyR and the product oxytocin (Oxy).

[2] = in combination with artificial tap water salt mixture
[3] = single agent in water (10 mg/ml caffeine or 5 mg/ml GSSG)

Compound: O=c1ccc(=O)[nH][nH]1 [1,2-dihydro-3,6-pyridazinedione]
- capacity to promote the formation of disulfide bridges [1]: active

Compound: Cn1ccc(=O)[nH]c1=O [1-methyl-uracil]
- capacity to promote the formation of disulfide bridges [1]: good activity

Compound: Nc1ccnc(N)n1 [2,4-diaminopyrimidine]
- capacity to promote the formation of disulfide bridges [1]: do not have the capacity to promote the formation of disulfide bridges

Compound: Cc1cc(O)nc(O)n1 [2,4-dihydroxy-6-methylpyrimidine]
- capacity to promote the formation of disulfide bridges [1]: active

Compound: Cc1cc(O)nc(C)n1 [2,4-dimethyl-6-hydroxypyrimidine]
- capacity to promote the formation of disulfide bridges [1]: active

Compound: Cc1cc(O)nc(C(C)C)n1 [2-isopropyl-6-methyl-4-pyrimidinol]
- capacity to promote the formation of disulfide bridges [1]: active

Compound: Cc1nc(O)cc(O)n1 [4,6-dihydroxy-2-methylpyrimidine]
- capacity to promote the formation of disulfide bridges [1]: active

Compound: Oc1cc(O)ncn1 [4,6-dihydroxy-pyrimidine]
- capacity to promote the formation of disulfide bridges [1]: active

Compound: O=C(O)CN(CCN(CC(=O)O)CC(=O)O)CC(=O)O [EDTA, ethylenediaminetetraacetic acid]
- effect of complexing agent on the strong effect of the iron ions (BB57; alloxan plus iron ions (3 μM) with two equivalents EDTA): slightly weakened

Compound: O=C1NC(=O)C(=O)C(=O)N1 [alloxan, alloxan monohydrate]
- capacity to promote the formation of disulfide bridges [1]: Active
- effect of iron(III) ions on oxidation (BB57): accelerating effect
- reaction time (BB57): less than an hour
- time until almost completely cyclised (BB57): about 2 h
- reverse oxidation of the thiols in hair (human hair; 0.1% alloxan solution with low amounts of iron(III) ions, after 10 minutes): almost complete reverse oxidation
- advantage due to the addition of salt (human hair; alloxan with iron(III) chloride or artificial tap water, control after 10 minutes): small advantage
- oxidation of reduced hair (human hair; [2]): completely oxidize the hair

Compound: Nc1cnccn1 [aminopyrazine]
- capacity to promote the formation of disulfide bridges [1]: do not have the capacity to promote the formation of disulfide bridges

Compound: O=C1CC(=O)NC(=O)N1 [barbituric acid]
- capacity to promote the formation of disulfide bridges [1]: Active

Compound: Cn1c(=O)c2c(ncn2C)n(C)c1=O [caffeine]
- oxidation of the thiol groups of reduced hair (hair; combination 10 mg/ml caffeine and 5 mg/ml GSSG): almost quantitative oxidation of the thiol groups
- oxidation of the thiol groups of reduced hair (hair; [3]): partial oxidation of the thiol groups
- reaction time until complete conversion (BB57): about 10 h
- time of cyclisation (BB57): about an hour; also recorded: shortened
- time until complete conversion (BB57): about 15 h
- time until conversion is quantitative (BB57): ten
- time until oxidation is completed (BB57): approx. 24 h
- strength as catalysator on hair (human hair; comparison with alloxan): weaker compared to alloxan
- duration of the reaction compared with alloxan (human hair; [2]): takes longer
- oxidation of reduced hair (human hair; [2]): completely oxidize the hair
- time until cyclization successful (EPO mimetic peptide): ≤ 24 h

Compound: O=S(=O)([O-])[O-].[Fe+2] [iron(II) sulfate]
- accelerating effect on the cyclisation of BB57 (BB57): no activity

Compound: Nc1nc(N)nc(N)n1 [melamine]
- capacity to promote the formation of disulfide bridges [1]: do not have the capacity to promote the formation of disulfide bridges

Compound: Nc1cc(N2CCCCC2)nc(N)[n+]1[O-] [minoxidil, 6-(1-piperidinyl)-2,4-pyrimidinediamine-3-oxide]
- time until oxidation is completed (BB57; 0.7 mg BB57 and 0.3 mg substance in 1 ml distilled water, in the air, HPLC): approx. 29 h

Compound: NC(=O)c1cnccn1 [pyrazine amide]
- capacity to promote the formation of disulfide bridges [1]: do not have the capacity to promote the formation of disulfide bridges

Compound: O=C(O)c1cnccn1 [pyrazine-carboxylic acid]
- capacity to promote the formation of disulfide bridges [1]: do not have the capacity to promote the formation of disulfide bridges

Compound: O=C(O)c1cc(O)nc(O)n1 [uracil-6-carboxylic acid]
- capacity to promote the formation of disulfide bridges [1]: active

Compound: O=C1NC(=O)C(=NO)C(=O)N1 [violuric acid]
- capacity to promote the formation of disulfide bridges [1]: Active

Compound: glutathione in oxidized form [GSSG]
- oxidation of the thiol groups of reduced hair (hair; [3]): partial oxidation of the thiol groups
- influence on rate or yield (oxytocin, reduced (OxyR)): no influence on rate or yield
- conversion of the peptide (BB57): only takes place slowly

Compound: potassium hexacyanoferrate
- effect of stable metal ion complex on cyclisation by alloxan (BB57; alloxan plus potassium hexacyanoferrate(II) or (III) (30 μM), Ellman's reagent): accelerating effect
